Among the data in ChEMBL document CHEMBL3046359, “QSAR and pharmacophore studies of telomerase inhibitors” (Med Chem Res, 2012) are logIC50 values, retold here.

One assay deals with Telomerase reverse transcriptase (Homo sapiens) (UniProt O14746). Kind of assay: Inhibition of telomerase in Homo sapiens (human) A549 cells after 24 hr by TRAP assay. The assay is classed as cell-based.
Chain of Telomerase reverse transcriptase (Homo sapiens) (O14746 whole entry): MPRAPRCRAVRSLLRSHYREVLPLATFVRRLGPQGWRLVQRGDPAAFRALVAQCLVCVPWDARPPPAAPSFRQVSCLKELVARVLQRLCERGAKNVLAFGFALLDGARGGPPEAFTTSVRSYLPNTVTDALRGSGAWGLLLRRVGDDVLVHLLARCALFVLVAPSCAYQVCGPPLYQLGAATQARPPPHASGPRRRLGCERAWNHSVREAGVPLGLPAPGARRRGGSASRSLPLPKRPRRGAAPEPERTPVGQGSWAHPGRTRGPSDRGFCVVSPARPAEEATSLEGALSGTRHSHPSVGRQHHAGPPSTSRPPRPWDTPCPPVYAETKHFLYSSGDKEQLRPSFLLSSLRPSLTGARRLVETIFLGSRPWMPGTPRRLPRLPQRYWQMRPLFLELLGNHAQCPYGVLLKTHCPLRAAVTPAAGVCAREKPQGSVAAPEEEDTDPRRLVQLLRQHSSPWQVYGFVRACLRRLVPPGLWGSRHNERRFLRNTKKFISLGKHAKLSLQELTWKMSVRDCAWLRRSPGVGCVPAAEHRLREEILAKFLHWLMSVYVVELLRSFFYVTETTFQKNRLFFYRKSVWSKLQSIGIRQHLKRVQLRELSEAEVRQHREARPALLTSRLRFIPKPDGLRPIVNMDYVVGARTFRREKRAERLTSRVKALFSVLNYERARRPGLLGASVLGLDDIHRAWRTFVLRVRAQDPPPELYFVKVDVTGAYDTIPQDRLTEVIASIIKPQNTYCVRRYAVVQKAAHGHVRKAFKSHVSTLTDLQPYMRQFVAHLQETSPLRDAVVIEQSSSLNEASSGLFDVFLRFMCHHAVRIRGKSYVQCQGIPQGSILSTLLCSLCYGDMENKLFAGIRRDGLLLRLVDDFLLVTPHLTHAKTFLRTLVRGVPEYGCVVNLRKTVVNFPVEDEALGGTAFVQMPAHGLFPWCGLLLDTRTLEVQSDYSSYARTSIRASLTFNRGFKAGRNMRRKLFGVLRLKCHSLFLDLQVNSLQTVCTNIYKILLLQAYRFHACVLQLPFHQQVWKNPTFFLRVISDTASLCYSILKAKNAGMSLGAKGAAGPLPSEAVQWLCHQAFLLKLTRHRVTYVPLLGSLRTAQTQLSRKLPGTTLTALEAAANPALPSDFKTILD
For `O=C(CCN1CCCCC1)Nc1ccc2c(c1)C(=O)c1ccc(NC(=O)CCN3CCCCC3)cc1C2=O`, the logIC50 amounted to 0.65.
The same measure, in the same setting: for `O=C(CCN1CCCCC1)Nc1ccc2cc3ccc(NC(=O)CCN4CCCCC4)cc3nc2c1` the value was 0.45.
The same measure, in the same setting: the same measure for `O=C(CCN1CCCC1)Nc1ccc2c(c1)C(=O)c1ccc(NC(=O)CCN3CCCC3)cc1C2=O`: 0.25; for `O=C(CCN1CCCCCC1)Nc1ccc2cc3ccc(NC(=O)CCN4CCCCCC4)cc3nc2c1`: 0.49; for `O=C(CCN1CCCCCC1)Nc1ccc2c(c1)C(=O)c1ccc(NC(=O)CCN3CCCCCC3)cc1C2=O`: 1.11.
Still for that read-out and setting: the same measure for `O=C(CCN1CCCC1)Nc1ccc2cc3ccc(NC(=O)CCN4CCCC4)cc3nc2c1`: 0.72.

Another assay shares this target. The assay can be described thus: Inhibition of telomerase (unknown origin).
For `C[N+](C)(C)CCC(=O)Nc1ccc2c(c1)C(=O)c1cc(NC(=O)CC[N+](C)(C)C)ccc1-2`, the logIC50 was 1.27.
Still for that read-out and setting: the same measure for `C[N+]1(CCC(=O)Nc2ccc3c(c2)C(=O)c2cc(NC(=O)CC[N+]4(C)CCCCC4CO)ccc2-3)CCCCC1CO` (stereo unspecified): 1.52.
The same measure, in the same setting: for `CCN(CC)CCOc1ccc2c(c1)OC1C(=O)c3ccccc3C(=O)C21` (stereo unspecified) the value was 0.84.
Still for that read-out and setting: for `O=C(CCN1CCCCC1CCO)Nc1ccc2c(c1)C(=O)c1cc(NC(=O)CCN3CCCCC3CCO)ccc1-2` (stereo unspecified) the value was 1.22; for `C[N+]1(CCC(=O)Nc2ccc3c(c2)C(=O)c2cc(NC(=O)CC[N+]4(C)CCOCC4)ccc2-3)CCOCC1`, 1.44; for `CCN1CCN(CCC(=O)Nc2ccc3c(c2)C(=O)c2cc(NC(=O)CCN4CCN(CC)CC4)ccc2-3)CC1`, 1.23.
In turn, `CCCNCc1ccc2nc3c(ccc4cc5cc(CNCCC)ccc5nc43)cc2c1` gave a logIC50 of -0.3.
`CC1CCCCN1CCC(=O)Nc1ccc2c(c1)C(=O)c1cc(NC(=O)CCN3CCCCC3C)ccc1-2` (stereo unspecified) had a logIC50 of 1.08.
On the same count and under the same terms, the same measure for `CSc1nc(Nc2ccc3nc(C)cc(N(C)C)c3c2)nc(Nc2ccc3nc(C)cc(N(C)C)c3c2)n1`: -1.39; for `CCN(CC)CCC(=O)Nc1ccc2c(c1)C(=O)c1cc(NC(=O)CCN(CC)CC)ccc1-2`: 1.19; for `CC[N+](C)(CC)CCC(=O)Nc1ccc2c(c1)C(=O)c1cc(NC(=O)CC[N+](C)(CC)CC)ccc1-2`: 1.4.
`CN1CCN(CCC(=O)Nc2ccc3c(c2)C(=O)c2cc(NC(=O)CCN4CCN(C)CC4)ccc2-3)CC1`: the logIC50 is 1.64.
The same measure, in the same setting: the same measure for `COc1ccc2ccc3c([nH]c4c5ccccc5nc(NCCN(C)C)c34)c2c1`: 0.1; for `CN(C)CCCNCc1ccc2nc3c(ccc4cc5cc(CNCCCN(C)C)ccc5nc43)cc2c1`: -0.04.
The same measure, in the same setting: the same measure for `Cc1oc2nc1-c1nc(co1)-c1nc(co1)-c1nc(co1)-c1nc(co1)-c1nc(co1)C1=NC(CS1)c1nc-2c(C)o1` (stereo unspecified): -2.3; for `CN(C)CCC(=O)Nc1ccc2c(c1)C(=O)c1cc(NC(=O)CCN(C)C)ccc1-2`: 1.21; for `O=C(CCN1CCCCC1)Nc1ccc2c(c1)C(=O)c1cc(NC(=O)CCN3CCCCC3)ccc1-2`: 0.95.
Same read-out and setting: the same measure for `O=C(CCN1CCC(O)CC1)Nc1ccc2c(c1)C(=O)c1cc(NC(=O)CCN3CCC(O)CC3)ccc1-2`: 1.27; for `CCCNCc1cc2nc3ccccc3cc2c2cc3ccccc3nc12`: 0.16.
The compound `C[n+]1cccc2cc(Nc3nc(N)nc(Nc4ccc5c(ccc[n+]5C)c4)n3)ccc21` gave a logIC50 of -0.89.
Still for that read-out and setting: the same measure for `CN(C)CCc1ccc2nc3c4ccccc4n(CCN(C)C)c3cc2c1`: 1.2; for `C[N+]1(CCC(=O)Nc2ccc3c(c2)C(=O)c2cc(NC(=O)CC[N+]4(C)CCCCC4)ccc2-3)CCCCC1`: 1.32; for `C[N+](C)(C)c1ccc(Nc2nc(N)nc(Nc3ccc([N+](C)(C)C)cc3)n2)cc1`: 0.84.
Same read-out and setting: for `O=C(CCN1CCCCC1CO)Nc1ccc2c(c1)C(=O)c1cc(NC(=O)CCN3CCCCC3CO)ccc1-2` (stereo unspecified) the value was 0.9; for `CCCNCc1ccc2nc3ccc4cc5cc(CNCCC)ccc5nc4c3cc2c1`, -0.52; for `CN(C)CCCNCc1ccc2nc3ccc4cc5cc(CNCCCN(C)C)ccc5nc4c3cc2c1`, -1.55.
In the case of `CN(C)CCCNc1nc2ccccc2c2[nH]c3c4cc([N+](=O)[O-])ccc4ccc3c12`, the logIC50 is -0.3.
On the same count and under the same terms, the same measure for `CCCNCc1ccc2nc3ccc4nc5ccc(CNCCC)cc5cc4c3cc2c1`: 0; for `CCC1CCCCN1CCC(=O)Nc1ccc2c(c1)C(=O)c1cc(NC(=O)CCN3CCCCC3CC)ccc1-2` (stereo unspecified): 1.15; for `COc1ccc2c(ccc3c2[nH]c2c4ccccc4nc(NCCCN(C)C)c32)c1`: 0.
On the same count and under the same terms, for `CN(C)CCCNCc1cc2nc3ccccc3cc2c2cc3ccccc3nc12` the value was -0.12; for `c1ccc2nc3cc(CNCCN4CCCCC4)c4nc5ccccc5cc4c3cc2c1`, 0.3.

For the next assay the target is unchanged. Kind of assay: Inhibition of Homo sapiens (human) telomerase.
Regarding `O=C(O)CCCCCCCCCCCNC(=O)Cc1cn(CCCOC2CCCCC2)c2ccccc12`, the logIC50 came out at 1.83.
For the compound `O=C(O)CCCCCCCCCCCNC(=O)Cc1cn(CCn2ccc3ccccc32)c2ccccc12`, the logIC50 came to 1.61.
Still for that read-out and setting: for `Cc1cn(CCCn2cc(CC(=O)NCCCCCCCCCCCC(=O)O)c3ccccc32)c2ccccc12` the value was 1.3; for `Cc1c2n(c3ccccc13)CCCn1c-2c(CC(=O)NCCCCCCCCCCCC(=O)O)c2ccccc21`, 1.91.
The same measure, in the same setting: the same measure for `O=C(O)CCCCCCCCCCCNC(=O)Cc1cn(CCCn2ccc3ccccc32)c2ccccc12`: 1.96.
Same read-out and setting: for `O=C(O)CCCCCCCCCCCNC(=O)Cc1cn(CCOc2cccc3ccccc23)c2ccccc12` the value was 1.54.
Consider `O=C(O)CCCCCCCCCCCNC(=O)Cc1cn(CCCOc2ccccc2)c2ccccc12`, for which the logIC50 is 1.51.

Another assay shares this target. Kind of assay: Inhibition of telomerase in Homo sapiens (human) A549 cells by TRAP assay. The assay is classed as cell-based.
With `O=C(O)CCCCCCCCCCCNC(=O)Cc1c2n(c3ccccc13)CCn1c-2cc2ccccc21`, the logIC50 was found to be 1.79.
